Experimental data reported in US20140378525A1, “MATERIALS AND METHODS FOR TREATING PTEN MUTATED OR DEFICIENT CANCER” (priority 2011, published 2014).

How the values were obtained:
Assay in all cases: Drug sensitivity of breast cancer cell line to lapatinib
Format in all cases: cell-based, human
JIMT1 = settings: JIMT1, ERBB2 amplified
Text: (§1) To complement this functional viability profiling, we also characterised the breast tumor panel using transcript microarrays, array-based comparative genomic hybridisation (aCGH), drug sensitivity for a small number of targeted agents, as well as gene mutation data.

SKBR3 = settings: SKBR3, ERBB2 amplified
Text: as §1

MDAMB453 = settings: MDAMB453, ERBB2 amplified
Text: as §1

HCC202 = settings: HCC202, ERBB2 amplified
Text: as §1

BT474 = settings: BT474, ERBB2 amplified
Text: as §1

VP229 = settings: VP229, ERBB2 amplified
Text: as §1

SMILES: CS(=O)(=O)CCNCc1ccc(-c2ccc3ncnc(Nc4ccc(OCc5cccc(F)c5)c(Cl)c4)c3c2)o1 [lapatinib]
- sensitivity to lapatinib treatment (JIMT1): resistant
- sensitivity to lapatinib treatment (SKBR3): sensitive
- sensitivity to lapatinib treatment (MDAMB453): resistant
- sensitivity to lapatinib treatment (HCC202): sensitive
- sensitivity to lapatinib treatment (BT474): sensitive
- sensitivity to lapatinib treatment (VP229): resistant
